Measured values from patent US10532064B2, “Biophosphonate compounds and gamma delta T cell-mediated therapy for treating epstein-barr virus-associated disorders” (priority 2014, dated 2020).

Legend:
Vγ9Vδ2-T cells = test: Expansion of Vγ9Vδ2-T cells from huPBMC in vitro with PAM and IL-2; assay type: cell-based, human
Description: The data are representative of 4 independent experiments. […] Data are representative of 4 independent experiments. […] Data are representative of 4 independent experiments.
Briefly, huPBMC were cultured in RPMI 1640 medium supplemented with 10% FBS. Pamidronate was added at day 0 and day 3 to a final concentration 9 μg/ml.
Human PBMCs were isolated from buffy coat preparation or anticoagulated peripheral blood by Ficoll-paque (GE Health life Science) gradient centrifugation. The PBMCs were cultured in 10% FBS-RPMI1640 supplemented with 15 ul of expansion reagent A; 25 ul of expansion reagent B was added from day 3 post culture. […] Data are representative for 4 independent experiments.

EBV-LPD [1] = test: Control of EBV-LPD by pamidronate in humanized mice (whole huPBMC); assay type: in vivo
Description: FIG. 8A: Protocol for the control of EBV-LPD by pamidronate (PAM) in humanized mice. Humanized mice were treated with PAM or PBS at day 0, 7, 14, 21, 28 after inoculation of EBV-LCL. FIG. 8B-8D: After treatment with PAM (n=8) or PBS (n=7), the survival (FIG. 8B), tumor incidence (FIG. 8C) and tumor volume (FIG. 8D) were measured at the indicated time.
(§1) Vγ9Vδ2-T-cell-depleted huPBMC were obtained after double depletions of […] by positive selection with magnetic microbeads. Rag2^−/−γc^−/− mice were transplanted with whole huPBMC or Vγ9Vδ2-T-cell-depleted huPBMC from the same healthy human donor. […] Humanized mice reconstituted with whole huPBMC (PBMC) or Vγ9Vδ2-T-cell-depleted huPBMC (PBMC-γδ-T) were inoculated with EBV-LCL and treated with pamidronate or PBS according to the protocol shown in FIG. 8A. The survival (FIG. 9A), tumor incidence (FIG. 9B) and tumor volume (FIG. 9C) in humanized mice (PBMC+PAM, n=12; PBMC-γδ-T+PAM, n=7; PBMC-γδ-T+PBS, n=6) are shown.
All animal studies were approved and performed in compliance with the guidelines for the use of experimental animals by the Committee on the Use of Live Animals in the Teaching and Research, the University of Hong Kong. Humanized mice were generated in 4-5 weeks old male or female Rag2^−/−γc^−/− mice by reconstitution of EBV seropositive whole huPBMC or Vγ9Vδ2-T-cell-depleted huPBMC as we described before (Tu et al., 2011). […] Humanized mice or 6-8 week old Rag2^−/−γc^−/− mice were inoculated s.c. with EBV-LCL or EGFP-expressing EBV-LCL (0.1×10^6/mouse). […] For humanized mice, a human equivalent dose of PAM (10 mg/kg body weight; Pamisol; Hospira Austrilia Pty Led) was injected i.p. at indicated time. The mice treated with an equivalent volume of PBS were used as controls. The signs of disease (loss of activity, weight loss, ruffled hair, palpable tumors, and ascites) and survival of mice were monitored. Mice with more than 17 mm of diameter subcutaneous tumor were sacrificed and counted as dying. Otherwise, mice were followed for 100 or 170 days and then killed. All mice were examined for postmortem evidence of tumor. The tumors and organs were collected for histology and immunohistochemistry assays.
After inoculation with EBV-LCL (1×10^5/mouse) s.c., humanized mice were injected intraperitoneally (i.p.) with pamidronate (10 mg/kg body weight) at day 0, 7, 14, 21 and 28 post EBV-LCL inoculation (FIG. 8A). PBS-treated mice were used as controls.
Mice reconstituted with whole huPBMC or Vγ9Vδ2-T-cell-depleted huPBMC were inoculated with EBV-LCLs s.c. and injected with pamidronate (10 mg/kg body weight) i.p. at day 0, 7, 14, 21 and 28 post EBV-LCL inoculation.

EBV-LPD [2] = test: Pamidronate in humanized mice reconstituted with Vγ9Vδ2-T-cell-depleted huPBMC; assay type: in vivo; settings: 10 mg/kg i.p. day 0, 7, 14, 21, 28
Excerpt: as §1
All animal studies were approved and performed in compliance with the guidelines for the use of experimental animals by the Committee on the Use of Live Animals in the Teaching and Research, the University of Hong Kong. Humanized mice were generated in 4-5 weeks old male or female Rag2^−/−γc^−/− mice by reconstitution of EBV seropositive whole huPBMC or Vγ9Vδ2-T-cell-depleted huPBMC as we described before (Tu et al., 2011). […] The signs of disease (loss of activity, weight loss, ruffled hair, palpable tumors, and ascites) and survival of mice were monitored. Mice with more than 17 mm of diameter subcutaneous tumor were sacrificed and counted as dying. […]

[3] = test system: cytolytic activities of Vγ9Vδ2-T cells against EBV-LCL; test: Blocking of Vγ9Vδ2-T cell cytotoxicity against EBV-LCL by inhibitors and neutralizing antibodies; assay type: cell-based, human; settings: E:T 10:1; antibodies 10 μg/ml, CMA and Bcl-2 1 μg/ml
Description: FIG. 1A: Phenotypes of EBV-LCL and autologous normal human B cells. The white histograms represent MICA/B, Fas, FasL DR4 and DR5, and the gray histograms represent isotype controls. […] FIG. 1C, 1D, 1G: PAM-expanded Vγ9Vδ2 T cells purified by positive selection were co-cultured with autologous EBV-LCL or normal B cells at different E:T ratios (FIG. 1C) or an E:T ratio of 10:1 (FIGS. 1D and 1G) for 4-6 hours. FIG. 1D: The Vγ9Vδ2 T cells were directly co-cultured with or physically separated from autologous EBV-LCLs for 6 hours by using a transwell system. […] FIG. 1G: The perforin inhibitor CMA, granzyme B inactivator Bcl-2, anti-NKG2D (αNKG2D), anti-TRAIL (αTRAIL) and anti-FasL (αFasL) blocking antibodies, or their relevant isotype control (mouse IgG1, mIgG1) were used in co-culture of EBV-LCL and their autologous PAM-expanded Vγ9Vδ2 T cells. The cytotoxicity was shown as the percentage of inhibition relative to those without any treatment. All the data shown as mean±SEM are representative of four independent experiments. *p<0.05.

[4] = post 20 days of in vitro culture in the presence of PAM and IL-2
[5] = Example 5, vs PBS-treated humanized mice
[6] = Example 6, humanized mice with whole huPBMC

NCCC(O)(P(=O)(O)O)P(=O)(O)O [pamidronate]
activation and expansion of Vγ9Vδ2-T cells (Vγ9Vδ2-T cells; huPBMC, PAM 9 μg/mL, rhIL-2 from day 3): induced selective activation and expansion | expansion of Vγ9Vδ2-T cells (mean) (Vγ9Vδ2-T cells; [4]): 198 fold | expansion of Vγ9Vδ2-T cells (range) (Vγ9Vδ2-T cells; [4]): 156-309 fold | percentage of Vγ9Vδ2-T cells within the PBMCs (mean) (Vγ9Vδ2-T cells; [4]): 82% | percentage of Vγ9Vδ2-T cells within the PBMCs (range) (Vγ9Vδ2-T cells; post 20 days of in vitro culture in the presence of PAM and IL-2, baseline 1-5% (mean 3%), 4 experiments): 67-95% | mice died within 100 days (EBV-LPD [1]; 10 mg/kg i.p. day 0, 7, 14, 21, 28, 1 out of 8 mice, all PBS mice died): 12.5% | mice with subcutaneous tumor growth within 100 days (EBV-LPD [1]; 10 mg/kg i.p. day 0, 7, 14, 21, 28, 3 out of 8 mice): 37.5% | frequency of Vγ9Vδ2-T cells in the peripheral blood (EBV-LPD [1]; 10 mg/kg i.p., vs PBS): significantly increased | persistence of Vγ9Vδ2-T cells in the peripheral blood (EBV-LPD [1]; EBV-LCL-grafted humanized mice, pamidronate-treated): up to 98 days | survival (EBV-LPD [1]; Example 5, PAM n=8 vs PBS n=7): significantly prolonged | tumor incidence (EBV-LPD [1]; [5]): significantly lower tumor incidence | tumor volume (EBV-LPD [1]; [5]): reduced tumor volume | tumor occurrence (EBV-LPD [1]; [6]): reduced tumor occurrence | tumor volume (EBV-LPD [1]; [6]): decreased tumor volume | survival (EBV-LPD [1]; Example 6, humanized mice with whole huPBMC, n=12): significantly prolonged survival | tumor metastasis in other organs at necropsy (EBV-LPD [1]; day 100, surviving 7 mice): failed to show any evidence of tumor metastasis | effects on survival, tumor occurrence and tumor volume (EBV-LPD [2]): had no such effects

C/C=C/[C@H]1O[C@@](O)([C@@H](C)[C@H](O)[C@H](C)[C@H]2OC(=O)/C(OC)=C/C(C)=C/[C@@H](C)[C@@H](O)[C@@H](CC)[C@@H](O)[C@H](C)C/C(C)=C/C=C/[C@@H]2OC)C[C@@H](O[C@H]2C[C@@H](O)[C@H](OC(N)=O)[C@@H](C)O2)[C@@H]1C [CMA, concanamycin A]
effect on cytolytic activity of Vγ9Vδ2-T cells against EBV-LCL [3]: strongly inhibited

Bcl-2: granzyme B inactivator Bcl-2 (R&D Systems)
effect on cytolytic activity of Vγ9Vδ2-T cells against EBV-LCL [3]: strongly inhibited
